According to the METLIN SMRT retention time set (Domingo-Almenara et al. 2019):

Assay: gradient 5% acetonitrile 3 min, to 50% in 2 min, to 85% in 15 min, held 3 min, 100 µL/min
Details: column: Zorbax Extend-C18 2.1 x 50 mm; eluents: water / acetonitrile, 0.1% formic acid
Outline: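 Mixtures of ~100 pure standards were chromatographed on a Zorbax Extend-C18 column (2.1 × 50 mm, 1.8 μm) at 100 μL/min using water and acetonitrile, each with 0.1% formic acid. Detection used a quadrupole time-of-flight mass spectrometer in positive and negative ionization mode, and data collection spanned 3 months. Retention time was obtained from adduct peaks picked computationally and each checked manually.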

| RP-LC retention time [s] | Structure (SMILES) |
| --- | --- |
| 1100 | c1ccc(-n2ncc3c(Nc4ccc5c(c4)OCO5)nc(N4CCOCC4)nc32)cc1 |
| 612 | O=C(Cn1cnc2ccccc2c1=O)N1CCCC1 |
| 626 | Cc1cccc(CNC(=O)C2CCN(CCc3cn(C)c4ncccc34)CC2)c1 |
| 970 | O=c1ccc(-c2ccccc2)nn1CCc1nc(-c2ccc(F)cc2)no1 |
| 906 | Cc1noc(-c2ccc(OC3CN(C(=O)CC4CCCC4)C3)cc2)n1 |
| 898 | Cc1noc(-c2ccc(OC3CN(C(=O)c4cccn4C)C3)cc2)n1 |
| 723 | CCN(Cc1ccccc1)c1ncc(NC(=O)c2ccccc2Cl)cc1C(=O)O |
| 787 | Cc1ccccc1OCC(O)CN1CCN(c2ccc(Cl)cc2)CC1 (configuration not stated) |
| 1040 | COc1ccc(OC)c(NC(=O)Cn2cnc3c(sc4nc(-c5ccccc5)ccc43)c2=O)c1 |
| 751 | Cn1nnnc1C1CCCN(S(=O)(=O)Cc2ccccc2)C1 (configuration not stated) |
| 692 | O=C1NCCCCCN(C(=O)c2ccsc2)[C@H]2CCC[C@@H]12 |
| 704 | Cc1ccc2c(c1)N(C(=O)CCC(=O)NCCCN1CC(C)CC(C)C1)CC(C)O2 (configuration not stated) |
| 981 | COc1ccccc1NC(=O)C1CCN(S(=O)(=O)c2c(C)nn(-c3ccccc3)c2C)CC1 |
| 603 | COC(=O)c1c[n+]([O-])ccc1OC |
| 875 | O=C(C1=CN(c2ccc(C(F)(F)F)cc2)c2cc(F)ccc2S1(=O)=O)N1CCOCC1 |
| 1080 | CCCNC(=O)c1c(O)c2cccnc2n(-c2ccc(OC)cc2)c1=O |
| 620 | Cc1nc(Nc2ncc3c(n2)CCCC3=O)nc2c(C)cccc12 |
| 793 | O=C(CSc1nnc(-c2ccccc2)o1)Nc1nsc(-c2ccccc2)n1 |
| 994 | COc1ccc2c(c1)C(C)CC(C)(C)N2C(=O)CSc1ncccn1 (configuration not stated) |

| RP-LC retention time [s] | Structure (SMILES) |
| --- | --- |
| 653 | CCOc1ccc(C(O)CN2CCN(c3ccccc3)CC2)cc1 (configuration not stated) |
| 995 | Fc1cccc(-c2noc(Cc3nnc(-c4ccc(Cl)cc4)o3)n2)c1 |
| 795 | CCn1cnc(S(=O)(=O)N2CCCC(C(=O)Nc3ccc(Cl)cc3C)C2)c1 (configuration not stated) |
| 1200 | c1cc2c3c(cccc3c1)NC1(CCC3(CC1)Nc1cccc4cccc(c14)N3)N2 |
| 884 | CCCCOC(=O)C1=C(C)NC(=O)NC1c1ccc(OCCC)c(OC)c1 (configuration not stated) |
| 642 | CCCNC(=O)N1CCC(c2noc(-c3cccnc3)n2)C1 (configuration not stated) |
| 787 | Cc1ccc(OCC(=O)Nc2cc3c(cc2N2CCOCC2)n(C)c(=O)c(=O)n3C)c(C)c1 |
| 913 | CC(C)c1ccc(-n2nc(N3CCN(C(=O)c4cccs4)CC3)ccc2=O)cc1 |
| 1090 | O=C(NCCC1=CCCCC1)C1CCCN(c2nccn3nc(-c4ccccc4Cl)cc23)C1 (configuration not stated) |
| 592 | COc1ccc(-c2nc(NCCN(C)C3CCCCC3)c3ccccc3n2)cc1 |
| 871 | COCCN1C(=O)c2ccccc2C(C(=O)Nc2ccc(OC)cc2OC)C12CCCC2 (configuration not stated) |
| 1250 | Cc1ccc(Sc2nccnc2N2CCCC(C(=O)NC3CCCCCC3)C2)cc1 (configuration not stated) |
| 578 | O=C(Nc1c(-c2ccc(F)cc2)nc2ccccn12)C1CC1 |
| 666 | Cn1c(CNC(=O)C2CCC2)nc2c1CN(S(=O)(=O)c1ccc(Cl)s1)CC2 |
| 828 | CCOC(=O)c1ccc(NC(=O)Cn2nc3c(N4CCSCC4)nccn3c2=O)cc1 |
| 639 | COc1ccccc1C(=O)N1CCC(Oc2cc(N(C)C)ncn2)C1 (configuration not stated) |
| 658 | O=C1CCCN1CCCN1C(=O)[C@H]2CN(Cc3ccc(F)cc3Cl)C[C@H]2C1=O |
| 937 | O=[N+]([O-])c1ccc(CSc2nnc(-c3cccc(S(=O)(=O)N4CCCC4)c3)o2)cc1 |
